Test results as given in PubChem BioAssay AID1259407 (Chemical Carcinogenesis Research Information System (CCRIS), 2018).
The source made the active and inactive calls. How the calls were made is not given here.

System: CCRIS mutagenicity, Ames/micronucleus/aberration tests
Test: CCRIS mutagenicity studies
[1] = Test System: AMES SALMONELLA TYPHIMURIUM, Strain/Indicator: TA98, Metabolic Activation: NONE, Method: PREINCUBATION

SMILES: COC(=O)c1ccccc1C(=O)OC
- mutagenic call (End Point: IN VITRO CHROMOSOMAL ABERRATIONS, Test System: CHO-LB CELLS, Metabolic Activation: NONE): inactive; negative
- mutagenic call (End Point: IN VITRO CHROMOSOMAL ABERRATIONS, Test System: CHO-LB CELLS, Metabolic Activation: RAT, LIVER, S-9, AROCLOR 1254): inactive; negative
- mutagenic call (Test System: AMES SALMONELLA TYPHIMURIUM, Strain/Indicator: TA98, Metabolic Activation: HAMSTER, LIVER, S-9, AROCLOR 1254 (10%), Method: PREINCUBATION): inactive; negative
- mutagenic call [1]: inactive; negative
- mutagenic call (Test System: AMES SALMONELLA TYPHIMURIUM, Strain/Indicator: TA98, Metabolic Activation: RAT, LIVER, S-9, AROCLOR 1254 (10%), Method: PREINCUBATION): inactive; negative
- mutagenic call (Test System: AMES SALMONELLA TYPHIMURIUM, Strain/Indicator: TA100, Metabolic Activation: HAMSTER, LIVER, S-9, AROCLOR 1254 (10%), Method: PREINCUBATION): inactive; negative
- mutagenic call (Test System: AMES SALMONELLA TYPHIMURIUM, Strain/Indicator: TA100, Metabolic Activation: NONE, Method: PREINCUBATION): inactive; negative
- mutagenic call (Test System: AMES SALMONELLA TYPHIMURIUM, Strain/Indicator: TA100, Metabolic Activation: RAT, LIVER, S-9, AROCLOR 1254 (10%), Method: PREINCUBATION): inactive; negative
- mutagenic call (Test System: AMES SALMONELLA TYPHIMURIUM, Strain/Indicator: TA100, Metabolic Activation: RAT, LIVER, S-9, AROCLOR 1254, Method: STANDARD PLATE): inactive; negative
- mutagenic call (Test System: AMES SALMONELLA TYPHIMURIUM, Strain/Indicator: TA100, Metabolic Activation: S-9, Method: STANDARD PLATE): inactive; negative
- mutagenic call (Test System: AMES SALMONELLA TYPHIMURIUM, Strain/Indicator: TA1535, Metabolic Activation: HAMSTER, LIVER, S-9, AROCLOR 1254 (10%), Method: PREINCUBATION): inactive; negative
- mutagenic call (Test System: AMES SALMONELLA TYPHIMURIUM, Strain/Indicator: TA1535, Metabolic Activation: NONE, Method: PREINCUBATION): inactive; negative
- mutagenic call (Test System: AMES SALMONELLA TYPHIMURIUM, Strain/Indicator: TA1535, Metabolic Activation: NONE, Method: STANDARD PLATE): inactive; negative
- mutagenic call (Test System: AMES SALMONELLA TYPHIMURIUM, Strain/Indicator: TA1535, Metabolic Activation: RAT, LIVER, S-9, AROCLOR 1254 (10%), Method: PREINCUBATION): inactive; negative
- mutagenic call (Test System: AMES SALMONELLA TYPHIMURIUM, Strain/Indicator: TA1535, Metabolic Activation: S-9, Method: STANDARD PLATE): inactive; negative
- mutagenic call (Test System: AMES SALMONELLA TYPHIMURIUM, Strain/Indicator: TA1537, Metabolic Activation: HAMSTER, LIVER, S-9, AROCLOR 1254 (10%), Method: PREINCUBATION): inactive; negative
- mutagenic call (Test System: AMES SALMONELLA TYPHIMURIUM, Strain/Indicator: TA1537, Metabolic Activation: NONE, Method: PREINCUBATION): inactive; negative
- mutagenic call (Test System: AMES SALMONELLA TYPHIMURIUM, Strain/Indicator: TA1537, Metabolic Activation: RAT, LIVER, S-9, AROCLOR 1254 (10%), Method: PREINCUBATION): inactive; negative
- mutagenic call (Test System: MOUSE LYMPHOMA, Strain/Indicator: L5178Y (TK+/TK-), Metabolic Activation: NONE, Method: SUSPENSION/PLATE): inactive; negative
- mutagenic call (Test System: MOUSE LYMPHOMA, Strain/Indicator: L5178Y (TK+/TK-), Metabolic Activation: RAT LIVER S-9, Method: SUSPENSION/PLATE): active; positive

SMILES: O=[N+]([O-])/C=C/c1ccco1
- mutagenic call (End Point: IN VITRO MICRONUCLEUS, Test System: HUMAN LYMPHOCYTES, Metabolic Activation: NONE): inactive; negative
- mutagenic call (End Point: IN VITRO MICRONUCLEUS, Test System: HUMAN LYMPHOCYTES, Metabolic Activation: S-9): inactive; negative
- mutagenic call (End Point: IN VIVO MICRONUCLEUS, Test System: BONE MARROW, Species: MOUSE, Strain/Sex: CD-1/MALE, Route: INTRAPERITONEAL): inactive; negative
- mutagenic call [1]: inactive; negative

SMILES: CS(=O)(=O)Nc1ccc(Nc2c3ccc(N=[N+]=[N-])cc3nc3cc(N=[N+]=[N-])ccc23)cc1
- mutagenic call (Test System: AMES SALMONELLA TYPHIMURIUM, Strain/Indicator: TA1537, Metabolic Activation: NONE, Method: STANDARD PLATE): active; positive

SMILES: C=CCOc1ccccc1OCC(O)CN(N=O)C(C)C (configuration not stated)
- mutagenic call (Test System: CHINESE HAMSTER V-79, Strain/Indicator: V-79/6-THIOGUANINE, Metabolic Activation: NONE, Method: REPLATING): inactive; negative
- mutagenic call (Test System: CHINESE HAMSTER V-79, Strain/Indicator: V-79/6-THIOGUANINE, Metabolic Activation: RAT, HEPATOCYTES, Method: REPLATING): active; positive
- mutagenic call (Test System: CHINESE HAMSTER V-79, Strain/Indicator: V-79/OUABAIN, Metabolic Activation: NONE): inactive; negative
- mutagenic call (Test System: CHINESE HAMSTER V-79, Strain/Indicator: V-79/OUABAIN, Metabolic Activation: RAT, HEPATOCYTES): inactive; negative
- mutagenic call (Test System: UDS HUMAN HEPATOCYTES, Strain/Indicator: THY INCORP, Metabolic Activation: NONE, Method: AUTORADIOGRAPHY): active; positive
- mutagenic call (Test System: UDS RAT HEPATOCYTES, Strain/Indicator: THY INCORP, Metabolic Activation: NONE, Method: AUTORADIOGRAPHY): active; positive

SMILES: c1ccc2c(c1)c1cccc3c4ccccc4c4cccc2c4c13
- mutagenic call (Test System: HUMAN H1A1V2 CELLS, Strain/Indicator: TK LOCUS, Metabolic Activation: NONE, Method: SUSPENSION/PLATE): active; positive
